{"source": "patent EP0804206B1", "about": "“ANTIFUNGAL AGENT CONTAINING CROTAMITON, AND SALICYCLIC ALDEHYDE” (Pierre Fabre Dermo-Cosmetique, priority 1995, dated 1996)", "tested_on": "Trichophyton mentagrophytes n° 8611", "assay": "Minimal fungistatic concentration (CMF) of the products alone and combined, with FIC index", "format": "cell-based", "text": "La synergie peut être mise-en évidence par le calcul des index FIC (Fractional Inhibitory Concentration) ou FBC (Fractional Bactericidal Concentration) des produits. Pour cela, on mesure la valeur de la CMF (ou concentration minimale fongistatique), ou de la CMϕ (ou concentration minimale fongicide), des principes actifs à tester vis-à-vis d'un type de germe.\nLe FIC d'un produit A est défini comme : FICA (CMF du produit A en association)/(CMF du produit A seul) [formula]\nL'association de deux antifongiques A et B est synergique si la somme FIC des rapports (FICA + FICB) est inférieure ou égale à 0,75.\nOn considère qu'il y a simple additivité pour des valeurs de FIC comprises entre 0,75 et 1,1, et indifférence dans l'intervalle compris entre 1,1 et 2; au-delà, l'association est notée antagoniste.\nAprès détermination des niveaux de concentrations minimales inhibitrices pour chaque souche, les associations entre les différents principes actifs sont testées. Le FIC Index =(CMI crotamiton associé)/(CMI crotamiton seul)+(CMI salicylaldéhyde associé)/(CMI salicylaldéhyde seul) [formula] est calculé.\nLes activités antifongiques du crotamiton et du salicylaldéhyde ont été recherchées sur Trichophyton mentagrophytes.\nLes concentrations minimales fongistatiques des produits seuls et associés sont présentées ici.\n• * Souche • Trichophyton mentagrophytes n° 8611 • * Milieux de culture • Bouillon Sabouraud • Gélose Sabouraud • Eau distillée stérile • * Produits • Crotamiton (Borhinger, lot-209313) • Salicylaldéhyde Prolabo Rectapur encapsulé dans β cyclodextrines = formule aldéhydique\nLes solutions-mère aqueuses des produits suivants ont été testées pour leur meilleure solubilité et sans artéfact d'activité antifongique : • Crotamiton : 0,2% dans 10% PEG 200 • Solution aqueuse à 10% aldhéhyde salicylique.\nLes essais sont réalisés plusieurs fois car ces produits sont très volatils, rendant la lecture des tests très difficile. […]", "data": [{"smiles": "CC=CC(=O)N(CC)c1ccccc1C", "note": "[Crotamiton, N-éthyl-O crotonotoluidide]", "values": [{"measurement": "fois moins de produit pour obtenir le même effet antifongique que les produits utilisés seuls", "setting": "combined versus alone, formule aldéhydique at 10% aldehyde", "value": 30, "unit": "fois"}, {"measurement": "CMF = Concentrations Minimales Fongistatiques, Seul", "setting": "product alone, T. mentagrophytes calibrated at 10^6 spores per ml", "value": "0,1%"}, {"measurement": "CMF = Concentrations Minimales Fongistatiques, Associés", "setting": "product in the binary combination Crotamiton - Formule aldéhydique, T. mentagrophytes 10^6 spores per ml", "value": "0,003%"}]}]}
